Measured values reported in ChEMBL document CHEMBL3301361, “Experimental in vitro DMPK and physicochemical data on a set of publicly disclosed compounds”.
Converted amounts (≈) assume the structure as drawn.

Key:
[1] = physchem
[2] = in vitro; conditions: human
[3] = physchem; remark: listed apart in the source
[4] = physchem; conditions: octan-1-ol/water, pH 7.4, LogD7.4
[5] = physchem; conditions: pH 7.4 buffer
[6] = in vitro; conditions: human, hepatocytes
[7] = in vitro; conditions: human, plasma, PPB
[8] = in vitro; conditions: hepatocytes
[9] = in vitro; conditions: SD, HW or BN, rat, plasma

Compound	pKa [1]	pKa [3]	logD [4]	other results
Cc1cc(Cl)ccc1OC1CCN(C[C@H](O)CNC(=O)c2c[nH]c(=O)cc2C(F)(F)F)CC1	8.6	7.5	2.37	microsomal CLint ([2]; liver microsomes): < 3 µL/min/mg
Cc1c(O)nc(N)nc1-c1ccccc1	9.61	4.37	–	–
CN1CCN(c2c(F)cc3c(=O)c(C(=O)O)cn(CCF)c3c2F)CC1 [FLEROXACIN]	5.6	7.91	–	–
O=C(NC[C@@H](O)CN1CCC(Oc2ccc(Cl)c(Cl)c2)CC1)c1c[nH]c(=O)cc1C(F)(F)F	8.3	7.7	2.71	microsomal CLint ([2]; liver microsomes): 6 µL/min/mg
O=C(O)Cc1cccc(N2CCC(CN3CCC(Oc4ccc(Cl)c(Cl)c4)CC3)CC2)c1	4.4	8.9	–	–
COc1c(C)c2c(c(O)c1C/C=C(\C)CCC(=O)OCCN1CCOCC1)C(=O)OC2 [MYCOPHENOLATE MOFETIL]	8.01	6.06	2.26	solubility thermodynamic [5]: 87.1 µM (≈ 37.8 µg/mL)
CCn1cc(C(=O)O)c(=O)c2cc(F)c(N3CCNC(C)C3)c(F)c21 (stereo not drawn) [LOMEFLOXACIN]	5.82	8.87	-1.1	–
CCc1cccc2c3c([nH]c12)C(CC)(CC(=O)O)OCC3 (stereo not drawn) [ETODOLAC]	4.15	–	–	hepatocyte CLint [6]: 12.9 µL/min/1e6 cells
O=C(O)COc1cccc(C(=O)N2CCC(N3CCC(Oc4ccc(Cl)c(Cl)c4)CC3)CC2)c1	2.9	8.2	1.09	microsomal CLint ([2]; microsomes): < 3 µL/min/mg; fraction unbound at 5 h [7]: 0.013
O=C(O)c1cccc(N2CCC(CN3CCC(Oc4ccc(Cl)c(Cl)c4)CC3)CC2)c1	4.3	8.7	–	microsomal CLint ([2]; liver microsomes): 6 µL/min/mg; solubility thermodynamic [5]: 141 µM (≈ 65.5 µg/mL)
COc1ccc(S(=O)(=O)NC(=O)N2CCC(N3CCC(Oc4ccc(Cl)c(Cl)c4)CC3)CC2)cc1	3.6	8.3	1.39	microsomal CLint ([2]; liver microsomes): < 3 µL/min/mg; fraction unbound at 5 h [7]: 0.0127
O=C(NS(=O)(=O)c1ccc(F)cc1)N1CCC(N2CCC(Oc3ccc(Cl)c(Cl)c3)CC2)CC1	3	8.45	1.79	microsomal CLint ([2]; microsomes): 11 µL/min/mg; fraction unbound at 5 h [7]: 0.194
Nc1nc2c(ncn2CCC(CO)CO)c(=O)[nH]1 [PENCICLOVIR]	9.48	2.97	–	–
Nc1ncnc2c1ncn2CCOCP(=O)(O)O [ADEFOVIR]	7.66	4.34	–	–
CCCN(CCC)CCc1ccc(O)c2c1CC(=O)N2 [SKF-89124A]	8.35	10.2	–	–
O=C(NS(=O)(=O)N1CCC(N2CCC(Oc3ccc(Cl)c(Cl)c3)CC2)CC1)c1ccccc1	4.3	8.1	2.14	–
Cc1ccc(S(=O)(=O)NC(=O)N2CCC(N3CCC(Oc4ccc(Cl)c(C)c4Cl)CC3)CC2)cc1	3.2	8.7	2.2	microsomal CLint ([2]; liver microsomes): 3 µL/min/mg; fraction unbound at 5 h [7]: 0.179
CN(C)c1ccccc1S(=O)(=O)NC(=O)N1CCC(N2CCC(Oc3ccc(Cl)c(Cl)c3)CC2)CC1	6.6	8.6	1.74	microsomal CLint ([2]; liver microsomes): 33 µL/min/mg; fraction unbound at 5 h [7]: 0.0175
NCC1CCC(C(=O)O)CC1 (stereo not drawn)	4.9	10	–	–
CCCN(CCC)CCc1ccc(O)c(NC(C)=O)c1	8.75	10.8	–	microsomal CLint ([2]; liver microsomes): 36 µL/min/mg
CO/N=C1\CN(c2nc3c(cc2F)c(=O)c(C(=O)O)cn3C2CC2)CC1CN (stereo not drawn) [GEMIFLOXACIN]	6.36	8.6	–	–
O=C(NS(=O)(=O)c1ccccc1)N1CCC(N2CCC(Oc3ccc(Cl)c(Cl)c3)CC2)CC1	3.3	8.1	1.5	microsomal CLint ([2]; liver microsomes): < 3 µL/min/mg; fraction unbound at 5 h [7]: 0.186
CCCN(CCC)C1CCc2c(O)cccc2C1 (stereo not drawn) [5-OH-DPAT]	9.25	10.8	–	–

Compound	pKa [1]	pKa [3]	logD [4]	other results
CC(C)(C)c1cc(NC(=O)NCc2ccccc2Sc2ccc3nnc(-c4ccccc4SCCO)n3c2)n(-c2ccc(O)c(Cl)c2)n1 [PF-03715455]	7.17	–	–	microsomal CLint ([2]; liver microsomes): > 150 µL/min/mg; hepatocyte CLint [8]: 70.8 µL/min/1e6 cells; fraction unbound at 5 h [9]: 0.0013; hepatocyte CLint [6]: 25.1 µL/min/1e6 cells
NC1CCc2cc(O)c(O)cc2C1 (stereo not drawn)	9.1	10.5	–	–
O=C(NCC12CC3CC(CC(C3)C1)C2)c1cc(-n2ncc(=O)[nH]c2=O)ccc1Cl	6.2	–	2.1	microsomal CLint ([2]; liver microsomes): 83.8 µL/min/mg; hepatocyte CLint [8]: 15.3 µL/min/1e6 cells; fraction unbound at 5 h [9]: 0.0171; hepatocyte CLint [6]: 37 µL/min/1e6 cells
O=C(O)c1ccc(N2CCC(CN3CCC(Oc4ccc(Cl)c(Cl)c4)CC3)CC2)cc1	4.55	8.85	–	–
CNCCc1ccc(O)c(O)c1 [DEOXIEPINEPHRINE]	8.97	10.9	–	–
CN(C)C1CCc2c(ccc(O)c2O)C1 (stereo not drawn)	8.85	10.5	–	–
OCc1ccnc2c(O)cccc12	9.45	4.64	–	–
O=C(O)c1cccc(C(=O)N2CCC(N3CCC(Oc4ccc(Cl)c(Cl)c4)CC3)CC2)c1	3.4	8.6	1.23	microsomal CLint ([2]; liver microsomes): < 3 µL/min/mg; fraction unbound at 5 h [7]: 0.0499
COc1c(N2CCNC(C)C2)c(F)cc2c(=O)c(C(=O)O)cn(C3CC3)c12 (stereo not drawn) [GATIFLOXACIN]	6.05	9.18	-0.82	–
[O-][S+](Cc1ccccn1)c1nc2ccccc2[nH]1 (stereo not drawn) [TIMOPRAZOLE]	8.8	3.1	–	–
NC1CCc2c(ccc(O)c2O)C1 (stereo not drawn)	8.9	10.5	–	–
O=C(Nc1ccc(N2CCOCC2)c(F)c1)c1nnc(Nc2ccccc2F)o1	8.61	6.17	3.6	solubility thermodynamic [5]: 1.3 µM (≈ 0.522 µg/mL)
NC1CCN(c2c(F)cc3c(=O)c(C(=O)O)cn(C4CC4)c3c2Cl)C1 (stereo not drawn) [CLINAFLOXACIN]	5.77	9.1	–	–
CCOC(=O)[C@H](CCc1ccccc1)N[C@@H](C)C(=O)N1CCC[C@H]1C(=O)O	3.1	6.4	–	–
COC(=O)c1cc2nc([S+]([O-])Cc3ncccc3C)[nH]c2cc1C (stereo not drawn) [PICOPRAZOLE]	8.1	3.5	–	–
NCC1Cc2c1ccc(O)c2O (stereo not drawn)	10.4	8.5	–	–
CCCc1nc(C(C)(C)O)c(C(=O)OCc2oc(=O)oc2C)n1Cc1ccc(-c2ccccc2-c2nnn[nH]2)cc1 [OLMESARTAN MEDOXOMIL]	4.29	6.05	–	–
CCn1cc(C(=O)O)c(=O)c2cc(F)c(N3CCNCC3)nc21 [ENOXACIN]	6.2	8.76	-0.83	fraction unbound at 5 h [7]: 0.656
Cc1ccc2c(c1)c(-c1ccnc3c(C(F)(F)F)cccc13)c(C)n2CC(=O)O	2.4	3.5	1.27	fraction unbound at 5 h [7]: 0.0038
CCC(=O)NC(c1cccs1)c1cc(Cl)c2cccnc2c1O (stereo not drawn)	8.19	2.5	–	microsomal CLint ([2]; microsomes): 21.4 µL/min/mg
Nc1nc(-c2ccccc2)cc(=O)[nH]1	9.05	3.45	–	–
O=C(O)COc1ccc(Cl)cc1CN1CCCN(S(=O)(=O)Cc2ccccc2)CC1	3.4	8.3	–	fraction unbound at 5 h [7]: 0.157
O=C(NS(=O)(=O)c1ccc(Cl)cc1)N1CCC(N2CCC(Oc3ccc(Cl)c(Cl)c3)CC2)CC1	2.5	8.2	2.59	microsomal CLint ([2]; liver microsomes): 5 µL/min/mg; fraction unbound at 5 h [7]: 0.329
